The record followed here is US20230051589A1, “COMPOUNDS AND COMPOSITIONS FOR TREATING CONDITIONS ASSOCIATED WITH NLRP ACTIVITY” (Novartis AG, priority 2018, published 2023).

This assay relates to IL-1β production in PMA-differentiated THP-1 cells. The assay is described as follows: IL-1β production in PMA-differentiated THP-1 cells stimulated with gramicidin (hTHP-1 assay, 2% fetal bovine serum; Procedures 1-3). The format is cell-based, human. The note with it: hTHP-1 assay containing 2% fetal bovine serum, Table B2, class symbols; read-out: IC50. In a few lines: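 IL-1β released into supernatants was read by HTRF after 2 h gramicidin (5 μM) challenge. Before challenge, compounds (3-fold dilutions, top 100 μM, 0.37% DMSO) were given 1 h on THP-1 cells differentiated with PMA (20 ng/ml, 16-18 h) and held in 2% FBS medium.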
Consider `NS(=O)(=NC(=O)Nc1c2c(cc3c1CC3)CCC2)c1ccc(CN2CCC2)cc1F` (single isomer, unassigned) [Example 524, (R) or (S)-4-(azetidin-1-ylmethyl)-2-fluoro-N′-((2,4,5,6-tetrahydro-1H-cyclobuta[f]inden-3 - yl)carbamoyl) benzenesulfonimidamide], for which the IC50 was 200 to 1000 nM.

For `NS(=O)(=NC(=O)Nc1c2c(cc3c1CC3)CCC2)c1ccc(CN2CCC2)cc1F` (single isomer, unassigned) [Example 525, (S) or (R)-4-(azetidin-1-ylmethyl)-2-fluoro-N′-((2,4,5,6-tetrahydro-1H-cyclobuta[f]inden-3 - yl)carbamoyl) benzenesulfonimidamide], the 50% inhibitory concentration (IC50) was 5000 to 30000 nM.

With `CC(C)c1cc2c(cc1NC(=O)N=S(N)(=O)c1cnc(C(C)(C)O)s1)CCC2` (single isomer, unassigned) [Example 526, (R) or (S)-2-(2-hydroxypropan-2-yl)-N′-((6-isopropyl-2,3-dihydro-1H-inden-5-yl)carbamoyl)thiazole-5-sulfonimidamide], the IC50 is 200 to 1000 nM.

With `CC(C)c1cc2c(cc1NC(=O)N=S(N)(=O)c1cnc(C(C)(C)O)s1)CCC2` (single isomer, unassigned) [Example 527, (S) or (R)-2-(2-hydroxypropan-2-yl)-N′-((6-isopropyl-2,3-dihydro-1H-inden-5-yl)carbamoyl) thiazole-5-sulfonimidamide], the IC50 lay in the range of 1000 to 5000 nM.

For `CNCC1(c2ccc(S(N)(=O)=NC(=O)Nc3c4c(cc5c3CCC5)CCC4)c(F)c2)CC1` (single isomer, unassigned) [Example 528, (R) or (S)-2-fluoro-N′-((1,2,3,5,6,7-hexahydro-s-indacen-4-yl)carbamoyl)-4-(1-((methylamino)methyl)cyclopropyl) benzenesulfonimidamide], the IC50 is 200 to 1000 nM.

Regarding `CNCC1(c2ccc(S(N)(=O)=NC(=O)Nc3c4c(cc5c3CCC5)CCC4)c(F)c2)CC1` (single isomer, unassigned) [Example 529, (S) or (R)-2-fluoro-N′-((1,2,3,5,6,7-hexahydro-s-indacen-4-yl)carbamoyl)-4-(1-((methylamino)methyl)cyclopropyl) benzenesulfonimidamide], the IC50 is 5000 to 30000 nM.

In the case of `CC(C)(O)c1csc([S@](N)(=O)=NC(=O)Nc2c3c(cc4c2C(=O)CC4)CCC3)c1` (single isomer, unassigned) [Example 530, (R) or (S)-4-(2-hydroxypropan-2-yl)-N′-((3-oxo-1,2,3,5,6,7-hexahydro-s-indacen-4-yl)carbamoyl) (thiophene-2-sulfonimidamide], the IC50 is 40 to 200 nM.

As to `CC(C)(O)c1csc([S@@](N)(=O)=NC(=O)Nc2c3c(cc4c2C(=O)CC4)CCC3)c1` (single isomer, unassigned) [Example 531, (S) or (R)-4-(2-hydroxypropan-2-yl)-N′-((3-oxo-1,2,3,5,6,7-hexahydro-s-indacen-4-yl)carbamoyl) (thiophene-2 - sulfoniinidamide], the IC50 was 1000 to 5000 nM.

On to `COCc1nc(C(C)(C)O)sc1S(N)(=O)=NC(=O)Nc1c2c(c(C#N)c3c1CCC3)CCC2` (single isomer, unassigned) [Example 532, (S) or (R)-N′-((8-cyano-1,2,3,5,6,7-hexahydro-s-indacen-4-yl)carbamoyl)-2-(2-hydroxypropan-2-yl)-4-(methoxymethyl) thiazole-5-suifoiiimidamide], for which the IC50 is 1000 to 5000 nM.

Take `COCc1nc(C(C)(C)O)sc1S(N)(=O)=NC(=O)Nc1c2c(c(C#N)c3c1CCC3)CCC2` (single isomer, unassigned) [Example 533, (R) or (S)-N′-((8-cyano-1,2,3,5,6,7-hexahydro-s-indacen-4-yl)carbamoyl)-2-(2-hydroxypropan-2-yl)-4-(methoxymethyl) thiazole-5-sulfonimidamide]: the IC50 lay in the range of 200 to 1000 nM.

`CO[C@H]1COc2c(S(N)(=O)=NC(=O)Nc3c4c(cc5c3CC5)CCC4)cnn2C1` (single isomer, unassigned) [Example 534, (R,6R) or (S,6R)-6-methoxy-N′-((2,4,5,6-tetrahydro-1H-cyclobuta[f]inden-3-yl)carbamoyl)-6,7-dihydro-5H-pyrazolo [5,1-b][1,3]oxazine-3-sulfonimidamide]: the IC50 is 8 to 40 nM.

Consider `CO[C@H]1COc2c(S(N)(=O)=NC(=O)Nc3c4c(cc5c3CC5)CCC4)cnn2C1` (single isomer, unassigned) [Example 535, (S,6R) or (R,6R)-6-methoxy-N′-((2,4,5,6-tetrahydro-1H-cyclobuta[f]inden-3-yl)caibamoyl)-6,7-dihydro-5H-pyrazolo [5,1-b][1,3]oxazine-3-sulfonimidamide], for which the concentration for half-maximal inhibition (IC50) lay in the range of 1000 to 5000 nM.

For the molecule `CNCc1ccc(S(N)(=O)=NC(=O)Nc2c3c(cc4c2CC4)CCC3)cc1` (single isomer, unassigned) [Example 536, (S) or (R)-4-((methylamino)methyl)-N′-((2,4,5,6-tetrahydro-1H-cyclobuta[f]inden-3-yl)carbamoyl) benzenesulfonimidamide], the IC50 lay within 5000 to 30000 nM.

In the case of `CNCc1ccc(S(N)(=O)=NC(=O)Nc2c3c(cc4c2CC4)CCC3)cc1` (single isomer, unassigned) [Example 537, (R) or (S)-4-((methylamino)methyl)-N′-((2,4,5,6-tetrahydro-1H-cyclobuta[f]inden-3-yl)carbamoyl) benzenesulfonimidamide], the IC50 lay within 1000 to 5000 nM.

For `CC(C)(O)c1cc(F)c(S(N)(=O)=NC(=O)Nc2c3c(cc4c2C(=O)CC4)CCC3)s1` (single isomer, unassigned) [Example 538, (S) or (R)-3-fluoro-5-(2-hydroxypropan-2-yl)-N′-((3-oxo-1,2,3,5,6,7-hexahydro-s-indacen-4-yl)carbamoyl) thiophene-2-sulfonimidamide], the IC50 lay in the range of 5000 to 30000 nM.

Take `CC(C)(O)c1cc(F)c(S(N)(=O)=NC(=O)Nc2c3c(cc4c2C(=O)CC4)CCC3)s1` (single isomer, unassigned) [Example 539, (R) or (S)-3-fluoro-5-(2-hydroxypropan-2-yl)-N′-((3-oxo-1,2,3,5,6,7-hexahydro-s-indacen-4-yl)carbamoyl) thiophene-2-sulfonimidamide]: the IC50 was 40 to 200 nM.

On to `CC(C)(O)c1csc(S(N)(=O)=NC(=O)Nc2c3c(c(C#N)c4c2CCC4)CCC3)n1` (single isomer, unassigned) [Example 540, (S) or (R)-N′-((8-cyano-1,2,3,5,6,7-hexahydro-s-indacen-4-yl)carbamoyl)-4-(2-hydroxypropan-2-yl)thiazole-2-sulfonimidamide], for which the IC50 is 1000 to 5000 nM.

On to `CC(C)(O)c1csc(S(N)(=O)=NC(=O)Nc2c3c(c(C#N)c4c2CCC4)CCC3)n1` (single isomer, unassigned) [Example 541, (R) or (S)-N′-((8-cyano-1,2,3,5,6,7-hexahydro-s-indacen-4-yl)carbamoyl)-4-(2-hydroxypropan-2-yl)thiazole-2-sulfonimidamide], for which the IC50 was in the range of 40 to 200 nM.

Regarding `CC(C)(O)c1nc(CO)c(S(N)(=O)=NC(=O)Nc2c3c(cc4c2CCC4)CCC3)s1` (single isomer, unassigned) [Example 542, (S) or (R)-N′-((1,2,3,5,6,7-hexahydro-s-indacen-4-yl)carbamoyl)-4-(hydroxymethyl)-2-(2-hydroxypropan-2-yl)thiazole-5-sulfonimidamide], the concentration for half-maximal inhibition (IC50) lay within 1000 to 5000 nM.

`CC(C)(O)c1nc(CO)c(S(N)(=O)=NC(=O)Nc2c3c(cc4c2CCC4)CCC3)s1` (single isomer, unassigned) [Example 543, (R) or (S)-N′-((1,2,3,5,6,7-hexahydro-s-indacen-4-yl)carbamoyl)-4-(hydroxymethyl)-2-(2-hydroxypropan-2-yl)thiazole-5-sulfonimidamide]: the IC50 lay within 8 to 40 nM.

Take `CC(C)(O)c1ccc(S(N)(=O)=NC(=O)Nc2c3c(c(C#N)c4c2CCC4)CCC3)cn1` (single isomer, unassigned) [Example 544, (S) or (R)-N′-((8-cyano-1,2,3,5,6,7-hexahydro-s-indacen-4-yl)carbamoyl)-6-(2-hydroxypropan-2-yl)pyridine-3-sulfonimidamide]: the IC50 lay in the range of 5000 to 30000 nM.

As to `CC(C)(O)c1ccc(S(N)(=O)=NC(=O)Nc2c3c(c(C#N)c4c2CCC4)CCC3)cn1` (single isomer, unassigned) [Example 545, (R) or (S)-N′-((8-cyano-1,2,3,5,6,7-hexahydro-s-indacen-4-yl)carbamoyl)-6-(2-hydroxypropan-2-yl)pyridine-3-sulfonimidamide], the IC50 is 40 to 200 nM.

Take `NS(=O)(=NC(=O)Nc1c2c(cc3c1CC3)CCC2)c1cnn2c1OCCC2` (single isomer, unassigned) [Example 546, (R) or (S)-N′-((2,4,5,6-tetrahydro-1H-cyclobuta[f]inden-3-yl)carbamoyl)-6,7-dihydio-5H-pyrazolo[5,1-b][1,3]oxazine-3-suIfonimidamide]: the half-maximal inhibitory concentration (IC50) lay in the range of 200 to 1000 nM.

In the case of `NS(=O)(=NC(=O)Nc1c2c(cc3c1CC3)CCC2)c1cnn2c1OCCC2` (single isomer, unassigned) [Example 547, (S) or (R)-N′-((2,4,5,6-tetrahydro-1H-cyclobuta[f]inden-3-yl)carbamoyl)-6,7-dihydio-5H-pyrazolo[5,1-b][1,3]oxazine-3-sulfonimidamide], the concentration for half-maximal inhibition (IC50) fell in the range of 1000 to 5000 nM.

In the case of `CC(C)n1nc(S(N)(=O)=NC(=O)Nc2c3c(c(C#N)c4c2CCC4)CCC3)cc1CO` (single isomer, unassigned) [Example 548, (R) or (S)-N′-((8-cyano-1,2,3,5,6,7-hexahydro-s-indacen-4-yl)carbamoyl)-5-(hydroxymethyl)-1-isopropyl-1H-pyrazole-3-sulfonimidamide], the IC50 lay in the range of 40 to 200 nM.

For the molecule `CC(C)n1nc(S(N)(=O)=NC(=O)Nc2c3c(c(C#N)c4c2CCC4)CCC3)cc1CO` (single isomer, unassigned) [Example 549, (S) or (R)-N′-((8-cyano-1,2,3,5,6,7-hexahydro-s-indacen-4-yl)carbamoyl)-5-(hydroxymethyl)-1-isopropyl-1H-pyrazole-3-sulfonimidamide], the 50% inhibitory concentration (IC50) lay within 5000 to 30000 nM.

By IC50 is commonly meant the concentration at which inhibition is half-maximal.
